This assay deals with T1, Human Serotonin Receptor, Subtype 7 (h5HT7) (Homo sapiens, UniProt P34969).
T1 construct: purchased PerkinElmer 6120512; host or cells: CHO cells (membranes)
As to the kind of experiment: Radioligand binding, cloned human serotonin receptor subtype 7 (h5HT7) expressed in CHO cells, [125I]LSD. To be noted: h5HT7 in CHO cells on Flashplate; [125I]LSD 0.82 nM; room temperature 240 minutes; triplicate; read-out: 5-HT7 IC-50. The method, then: Radioligand binding assays were performed using the Cloned Human Serotonin Receptor, Subtype 7 (h5HT7), expressed in CHO cells, coated on Flashplate (Basic FlashPlate Cat.: SMP200) from PerkinElmer (Cat.: 6120512). The protocol assay was essentially the recommended protocol in the Technical Data Sheet by PerkinEmer Life and Analytical Sciences. The Mass membrane protein/well was typically 12 μg and the Receptor/well was about 9–10 fmoles. The Flashplate were let equilibrate at room temperature for one hour before the addition of the components of the assay mixture. The binding buffer was: 50 mM Tris-HCl, pH 7.4, containing 10 mM MgCl2, 0.5 mM EDTA and 0.5% BSA. The radioligand was [^125I]LSD at a final concentration of 0.82 nM. Nonspecific binding was determined with 50 μM of Clozapine. The assay volume was 25 μl. TopSeal-A were applied onto Flashplate microplates and they were incubated at room temperature for 240 minutes in darkness. The radioactivity were quantified by liquid scintillation spectrophotometry (Wallac 1450 Microbeta Trilux) with a count delay of 4 minutes prior to counting and a counting time of 30 seconds per well. Competition binding data were analyzed by using the LIGAND program (Munson and Rodbard, LIGAND: A versatile, computerized approach for characterization of ligand-binding systems. Anal. Biochem. 107: 220–239, 1980) and assays were performed in triplicate determinations for each point.

Structures can show the parent of a compound that is named as a salt.

Data on five compounds can be found in patent US7211584B2, “5-HT7 receptor ligands” (Laboratorios del Dr. Esteve, S.A., priority 2004, dated 2007).

T1 sequence (P34969 whole entry): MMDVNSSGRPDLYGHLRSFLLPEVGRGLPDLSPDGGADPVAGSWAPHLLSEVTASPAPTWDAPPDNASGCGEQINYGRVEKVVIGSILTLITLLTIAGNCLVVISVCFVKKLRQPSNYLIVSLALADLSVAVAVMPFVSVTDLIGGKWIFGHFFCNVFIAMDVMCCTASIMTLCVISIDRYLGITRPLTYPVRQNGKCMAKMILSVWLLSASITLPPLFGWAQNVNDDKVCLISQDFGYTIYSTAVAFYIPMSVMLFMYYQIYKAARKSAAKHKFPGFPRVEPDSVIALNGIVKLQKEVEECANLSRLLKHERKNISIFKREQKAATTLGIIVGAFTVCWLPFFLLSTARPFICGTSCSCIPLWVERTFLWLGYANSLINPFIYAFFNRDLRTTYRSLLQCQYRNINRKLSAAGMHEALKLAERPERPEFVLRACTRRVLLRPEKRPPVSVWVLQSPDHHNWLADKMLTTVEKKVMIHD

On to `O=S(=O)(NCCCN1CCc2ccccc2C1)c1cccc2ccccc12` [Compound 33, Naphthalene-1-sulfonic acid[3-(3,4-dihydro-1H-isoquinolin-2-yl)-propyl]-amide hydrochloride], for which the IC50 is 384 nM.
For the compound `O=S(=O)(NCCCN1CCc2ccccc2C1)c1ccccc1` [Compound 35, N-[3-(3,4-Dihydro-1H-isoquinolin-2-yl)-propyl]-benzenesulfonamidehydrochloride], the IC50 amounted to 136 nM.
For `COc1cc(C)c(S(=O)(=O)NCCCN2CCc3ccccc3C2)c(C)c1C` [Compound 40, N-[3-(3,4-Dihydro-1H-isoquinolin-2-yl)-propyl]-4-methoxy-2,3,6-trimethyl-benzenesulfonamidehydrochloride], the IC50 was determined as 112 nM.
Consider `COc1cc2c(cc1OC)CN(CCCNS(=O)(=O)c1cc(Cl)ccc1Cl)CC2` [Compound 43, 2,5-Dichloro-N-[3-(6,7-dimethoxy-3,4-dihydro-1H-isoquinolin-2-yl)-propyl]-benzenesulfonamidehydrochloride], for which the IC50 was 89.5 nM.
The result for `COc1cc2c(cc1OC)CN(CCCNS(=O)(=O)c1cc(Cl)c(F)cc1F)CC2` [Compound 48, 5-Chloro-N-[3-(6,7-dimethoxy-3,4-dihydro-1H-isoquinolin-2-yl)-propyl]-2,4-difluoro-benzenesulfonamide] reads 64.8 nM.
